Tests used:
[1] = biological target: BBB choline transporter; assay: Affinity for the BBB choline transporter; assay type: binding
[2] = biological target: T1, Rat striatal nicotinic receptors ([3H]nicotine binding) (Rattus norvegicus, UniProt P09483+P12390); assay: Inhibition of [3H]nicotine binding; conditions: 3 nM [3H]nicotine; for Inhibition of [3H]Nicotine binding: % inhibition at 100 nM analog, nonspecific binding with 10 μM cytisine
T1 construct: Whole brain, excluding cortex and cerebellum, was homogenized; from tissue; host or cells: rat brain membranes (whole brain excluding cortex and cerebellum)
T1 sequence (P09483 31-630): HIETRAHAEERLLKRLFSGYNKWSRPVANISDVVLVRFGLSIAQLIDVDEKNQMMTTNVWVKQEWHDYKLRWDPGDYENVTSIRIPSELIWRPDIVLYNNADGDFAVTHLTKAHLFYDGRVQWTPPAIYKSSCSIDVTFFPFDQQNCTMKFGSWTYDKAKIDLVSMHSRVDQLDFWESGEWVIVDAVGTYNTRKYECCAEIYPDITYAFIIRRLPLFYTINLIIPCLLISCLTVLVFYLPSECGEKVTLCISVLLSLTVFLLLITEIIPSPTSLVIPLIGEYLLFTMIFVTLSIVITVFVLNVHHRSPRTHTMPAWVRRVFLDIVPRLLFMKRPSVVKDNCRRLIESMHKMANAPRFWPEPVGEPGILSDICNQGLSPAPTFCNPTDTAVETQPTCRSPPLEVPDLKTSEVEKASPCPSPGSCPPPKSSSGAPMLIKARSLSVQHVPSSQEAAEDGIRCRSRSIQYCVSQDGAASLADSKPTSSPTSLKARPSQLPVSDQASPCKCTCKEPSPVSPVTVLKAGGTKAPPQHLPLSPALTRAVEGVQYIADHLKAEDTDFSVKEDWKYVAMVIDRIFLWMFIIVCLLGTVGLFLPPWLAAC
T1 sequence (P12390 25-500): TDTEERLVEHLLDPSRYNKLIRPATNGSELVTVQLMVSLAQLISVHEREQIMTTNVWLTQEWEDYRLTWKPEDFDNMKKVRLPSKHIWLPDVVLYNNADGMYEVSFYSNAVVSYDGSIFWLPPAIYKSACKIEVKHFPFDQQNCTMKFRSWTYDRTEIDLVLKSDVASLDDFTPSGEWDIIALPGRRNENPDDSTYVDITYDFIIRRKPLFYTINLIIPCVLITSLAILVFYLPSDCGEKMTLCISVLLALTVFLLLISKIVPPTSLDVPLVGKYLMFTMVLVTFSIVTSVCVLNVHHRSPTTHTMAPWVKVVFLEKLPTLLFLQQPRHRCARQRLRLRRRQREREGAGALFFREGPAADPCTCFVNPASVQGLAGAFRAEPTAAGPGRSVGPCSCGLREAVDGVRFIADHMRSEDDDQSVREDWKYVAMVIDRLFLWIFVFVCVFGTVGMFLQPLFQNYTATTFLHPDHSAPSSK
Description: (§1) Whole brain, excluding cortex and cerebellum, was homogenized in 20 vol of ice-cold buffer, containing (in mM): 2 HEPES, 11.8 NaCl, 0.48 KCl, 0.25 CaCl2 and 0.12 MgSO4, pH 7.5. Homogenate was centrifuged (25,000 g, 15 min, 4° C.). Pellets were resuspended in 20 vol buffer and incubated at 37° C., for 10 min, cooled to 4° C. and centrifuged (25,000 g, 15 min, 4° C.). Pellets were resuspended and centrifuged using the same conditions. Final pellets were stored in assay buffer, containing (in mM): 20 HEPES, 118 NaCl, 4.8 KCl, 2.5 CaCl2, and 1.2 MgSO4, pH 7.5 at −70° C. Upon use, final pellets were resuspended in ˜20 vol assay buffer. Samples (250 μl) contained 100-140 μg of membrane protein, 3 nM [^3H]nicotine or 3 nM [^3H]methyllycaconitine (MLA), and bis-quaternary ammonium cyclophane analog (100 nM) in assay buffer containing 50 mM Tris. Control was in the absence of analog. In [^3H]nicotine and [^3H]methyllycaconitine binding assays, nonspecific binding was determined in the presence of 10 μM cytisine and 10 μM nicotine, respectively. Incubations proceeded for 60 min at room temperature using 96-well plates and were terminated by harvesting on Unifilter-96 GF/B filter plates presoaked in 0.5% polyethylenimine, using a Packard FilterMate harvester. After washing 5 times with 350 μl ice-cold assay buffer, filter plates were dried (60 min, 4° C.), bottom-sealed, and filled with Packard's MicroScint 20 cocktail (40 μl/well). After 60 min, filter plates were top-sealed, and radioactivity determined using a Packard TopCount. Protein concentrations were determined using the Bradford dye-binding procedure bovine serum albumin as the standard.

[3] = biological target: T2, Rat striatal nicotinic receptors ([3H]MLA binding) (Rattus norvegicus, UniProt Q05941); assay: Inhibition of [3H]methyllycaconitine (MLA) binding; conditions: for Inhibition of [3H]MLA Binding: % inhibition at 100 nM analog, 2.5 nM [3H]MLA, nonspecific binding with 1 μM nicotine (footnote b)
T2 construct: Whole brain, excluding cortex and cerebellum, was homogenized; from tissue; host or cells: rat brain membranes (whole brain excluding cortex and cerebellum)
T2 sequence (Q05941 23-502): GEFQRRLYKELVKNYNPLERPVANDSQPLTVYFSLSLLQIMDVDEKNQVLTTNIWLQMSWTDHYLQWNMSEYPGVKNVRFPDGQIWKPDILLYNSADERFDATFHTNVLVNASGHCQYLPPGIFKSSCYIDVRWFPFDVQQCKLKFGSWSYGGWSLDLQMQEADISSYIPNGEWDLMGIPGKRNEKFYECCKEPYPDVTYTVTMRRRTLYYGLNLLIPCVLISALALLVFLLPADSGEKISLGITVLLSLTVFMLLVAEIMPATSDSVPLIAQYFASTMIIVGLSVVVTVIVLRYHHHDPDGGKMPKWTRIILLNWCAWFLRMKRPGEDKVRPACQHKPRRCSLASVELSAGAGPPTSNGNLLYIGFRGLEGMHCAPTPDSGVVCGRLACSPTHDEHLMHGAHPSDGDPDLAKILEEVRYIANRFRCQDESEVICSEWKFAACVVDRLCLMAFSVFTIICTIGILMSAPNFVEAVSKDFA
Description: as §1, with “Samples (250 μl) contained 100-140 μg of membrane protein, 3 nM [^3H]nicotine or 3 nM [^3H]methyllycaconitine (MLA), and bis-quaternary ammonium cyclophane analog (100 nM) in assay buffer containing 50 mM Tris.” left out, “In [^3H]nicotine and [^3H]methyllycaconitine binding assays, nonspecific binding was determined in the presence of 10 μM cytisine and 10 μM nicotine, respectively.” left out

[4] = tested on: nicotine-evoked [3H]DA release, rat striatal slices; assay: Inhibition of nicotine-evoked [3H]dopamine release from superfused rat striatal slices; assay type: cell-based; conditions: 100 nM analog superfused 60 min before nicotine (10 μM)
Description: Rat striatal slices (500 μm thickness, 6-8 mg wet weight) were incubated for 30 minutes in Krebs buffer (118 mM NaCl, 4.7 mM KCl, 1.2 mM MgCl2, 1.0 mM NaH2PO4, 1.3 mM CaCl2, 11.1 mM glucose, 25 mM NaHCO3, 0.11 mM L-ascorbic acid, and 0.004 mM disodium EDTA; pH 7.4, and saturated with 95% O2/5% CO2) in a metabolic shaker at 34° C. Slices were rinsed with 15 mL of fresh buffer and incubated for an additional 30 minutes in fresh buffer containing 0.1 μM [^3H]dopamine (DA; 6 slices/3 mL). Subsequently, slices were rinsed with 15 mL of fresh buffer and transferred to a glass superfusion chamber. Slices were superfused (1.0 mL/min) for 60 minutes with Krebs buffer containing nomifensine (10 μM) and pargyline (10 μM) and maintained at 34° C., pH 7.4, with continual aeration (95% O2/5% CO2). Two five minute samples (5 mL each) were collected to determine basal outflow of [^3H]DA. The bis-quaternary ammonium cyclophane analogs were added to the superfusion buffer after the collection of the second sample and remained in the buffer until 12 consecutive five minute samples were collected. […] At the end of the experiment, each slice was solubilized and the [^3H] content of the tissue determined.
Radioactivity in the superfusate and tissue samples was determined by liquid scintillation spectroscopy. Fractional release for tritium collected in each sample was divided by the total tritium present in the tissue at the time of sample collection and was expressed as a percentage of total tritium. Basal [^3H]outflow was calculated from the average of the tritium collected in the two five minute samples just before addition of the quaternary ammonium analog. […] [^3H]Overflow was calculated by subtracting the [^3H]outflow during an equivalent period of prestimulation from the values in samples collected during and after drug exposure. […]
The bis-quaternary ammonium cyclophane analogs were also evaluated for their ability to inhibit nicotine evoked [^3H]DA release. […] Antagonist activity was evaluated by comparing the nicotine evoked [^3H]overflow in the absence and presence of the analogs. […]

[5] = full concentration effect evaluated

SMILES | Ki [1] | Inhibition of [3H]Nicotine binding [2] | Inhibition of [3H]MLA Binding [3] | Ki [2, 5] | Ki [3, 5] | Inhibition of Nicotine-evoked [3H]DA release [4]
C1#Cc2ccc[n+](c2)CCCCCCCCC[n+]2cccc(c2)C#CCCCCCC1.[Br-].[Br-] [N,N′-(1,9-nonanediyl)-3,3′-(1,9-decanediyn-1,10-diyl)-bis-pyridinium dibromide] | 1.4 µM | 0% | 3% |  |  | 
C1#Cc2ccc[n+](c2)CCCCCCCC[n+]2cccc(c2)C#CCCCCCC1.[I-].[I-] [N,N′-(1,8-octanediyl)-3,3′-(1,9-decanediyn-1,10-diyl)-bis-pyridinium diiodide] |  | 9% | 0% |  |  | 
C1#Cc2ccc[n+](c2)CCCCCCCCCC[n+]2cccc(c2)C#CCCCCCC1 [N,N′-(1,10-decanediyl)-3,3′-(1,9-decanediyn-1,10-diyl)-bis-pyridinium diiodide] | 0.8 µM |  |  | 0.55 µM | 4.64 µM | 19%
c1cc2c[n+](c1)CCCCCCCCCCCCc1ccc[n+](c1)CCCCCCCCCCCC2 [N,3′-(1,12-dodecanediyl)-3,N′-(1,12-dodecanediyl)-bis-pyridinium dibromide] |  | 2% | 0% |  |  | 20%
C1#Cc2ccc[n+](c2)CCCCCC[n+]2cccc(c2)C#CCCCCCC1.[I-].[I-] [N,N′-(1,6-hexanediyl)-3,3′-(1,9-decanediyn-1,10-diyl)-bis-pyridinium diiodide] | 33.6 µM | 7% | 2% |  |  | 
c1cc2c[n+](c1)CCCC[n+]1cccc(c1)CCCCCCCCCCCC2 [N,N′-(1,4-butanediyl)-3,3′-(1,12-dodecanediyl)-bis-pyridinium diiodide] |  | 14 ± 2.6% | 3.0 ± 3.0% |  |  | 23%
C1#Cc2ccc[n+](c2)CCCCCCCCCCC[n+]2cccc(c2)C#CCCCCCC1.[Br-].[Br-] [N,N′-(1,11-undecanediyl)-3,3′-(1,9-decanediyn-1,10-diyl)-bis-pyridinium dibromide] | 15.2 µM | 11% | 3% |  |  | 
